Patent US20260355325A1, “DIMER COMPOUNDS” (KESMALEA THERAPEUTICS LIMITED, priority 2023, published 2026)

The compounds below were run against T1, BRD4 (Homo sapiens, UniProt O60885) (assay: BRD4 HiBiT Assay (degradation of endogenous BRD4 in HiBiT knock-in Flp-In LgBiT HEK293 cells)). Conditions: BRD4 degradation in cells at 6-hour timepoint.
T1 construct: Flp-In LgBiT HEK293 cells; lytic luminescence degradation readout
Format: cell-based
Text: The purpose of the BRD4 HiBiT Assay was to assess the binding affinity of the dimer to BRD4 and subsequent protein degradation.
BRD4 HiBiT cells (Flp-In™ LgBiT and KI HiBiT) were generated by first creating a Flp-In™293 stable cell line, transfecting in the pFRT serial vector containing an integrated Flp recombination target (FRT) site (Thermo Fisher Scientific, Waltham, MA) to HEK293 cells (ATCC, Manassas, VA). The LgBiT expression sequence (Promega Corporation, Madison, WA) was then introduced into the genome via Flp recombinase-mediated DNA recombination at the FRT site. HiBiT sequence (Promega Corporation, Madison, WA) was then knocked in to the endogenous BRD4 protein in the Flp-In™ LgBiT HEK293 cells and successful clones verifying by sequencing. Work on BRD4 HiBiT cell line was performed under license from Promega Corporation (Madison, WA). Cells were maintained in DMEM (Invitrogen™, Waltham, MA) supplemented with 10% FBS (AusGeneX, Molendinar, Australia) and 1% penicillin/streptomycin (Invitrogen™, Waltham, MA) in a humidified incubator at 5% CO2, 37° C.
Compounds were dissolved in DMSO (10 mM), serially diluted from 10 mM to 1.5 nM, and pre-incubated for 2 hours. Exponentially growing cells were seeded at 1×10^4 cells per well of 384 well plate (Corning, New York #3570). Cells were treated with compound for 6 or 48 hours. Following treatment, Nano-Glo® HiBiT Lytic Detection reagent (Promega Corporation, Madison, WA) was added according to manufacturer's instructions, and signal read using BMG CLARIOstar plate reader (BMG Labtech, Ortenburg, Germany). Each data point was performed in duplicate for every experiment. A DC50 value was calculated from linear regression analysis of the plots.

Row | SMILES | DC50
1 | Cc1ncsc1-c1ccc([C@H](C)NC(=O)[C@@H]2C[C@@H](O)CN2C(=O)[C@H](c2cc(OCc3ccccc3B3O[C@@H]4[C@H]5CC[C@H](C5)[C@]4(CCCNC(=O)C[C@@H]4N=C(c5ccc(Cl)cc5)c5c(sc(C)c5C)-n5c(C)nnc54)O3)no2)C(C)C)cc1 (single isomer, unassigned) [Example 9] | < 100 nM
2 | Cc1ncsc1-c1ccc(CNC(=O)[C@@H]2C[C@@H](O)CN2C(=O)C(c2cc(OCc3ccccc3B3O[C@@H]4C[C@@H]5C[C@@H](C5(C)C)[C@]4(CCNC(=O)C[C@@H]4N=C(c5ccc(Cl)cc5)c5c(sc(C)c5C)-n5c(C)nnc54)O3)no2)C(C)C)cc1 (single isomer, unassigned) [Example 13] | < 100 nM
3 | Cc1ncsc1-c1ccc(CNC(=O)[C@@H]2C[C@@H](O)CN2C(=O)[C@@H](NC(=O)CCc2ccccc2B2O[C@H]3C[C@H]4C[C@H](C4(C)C)[C@@]3(CCNC(=O)C[C@@H]3N=C(c4ccc(Cl)cc4)c4c(sc(C)c4C)-n4c(C)nnc43)O2)C(C)(C)C)cc1 [Example 1, (2S,4R)-1-((S)-2-(3-(2-((3aR,4R,6R,7aS)-3a-(2-(2-((S)-4-(4-chlorophenyl)-2,3,9-trimethyl-6H-thieno[3,2-f][1,2,4]triazolo[4,3-a][1,4]diazepin-6-yl)acetamido)ethyl)-5,5-dimethylhexahydro-4,6-methanobenzo[d][1,3,2]dioxaborol-2-yl)phenyl)propanamido)-3,3-dimethylbutanoyl)-4-hydroxy-N-(4-(4-methylthiazol-5-yl)benzyl)pyrrolidine-2-carboxamide] | < 100 nM
4 | Cc1ncsc1-c1ccc(CNC(=O)[C@@H]2C[C@@H](O)CN2C(=O)[C@@H](NC(=O)CCc2ccccc2B2O[C@H]3C[C@H]4C[C@H](C4(C)C)[C@@]3(CCCNC(=O)C[C@@H]3N=C(c4ccc(Cl)cc4)c4c(sc(C)c4C)-n4c(C)nnc43)O2)C(C)(C)C)cc1 [Example 5, (2S,4R)-1-((S)-2-(3-(2-((3aR,4R,6R,7aS)-3a-(3-(2-((S)-4-(4-chlorophenyl)-2,3,9-trimethyl-6H-thieno[3,2-f][1,2,4]triazolo[4,3-a][1,4]diazepin-6-yl)acetamido)propyl)-5,5-dimethylhexahydro-4,6-methanobenzo[d][1,3,2]dioxaborol-2-yl)phenyl)propanamido)-3,3-dimethylbutanoyl)-4-hydroxy-N-(4-(4-methylthiazol-5-yl)benzyl)pyrrolidine-2-carboxamide] | < 100 nM
5 | Cc1ncsc1-c1ccc([C@H](C)NC(=O)[C@@H]2C[C@@H](O)CN2C(=O)[C@@H](NC(=O)CCc2ccccc2B2O[C@H]3C[C@H]4C[C@H](C4(C)C)[C@@]3(CCNC(=O)C[C@@H]3N=C(c4ccc(Cl)cc4)c4c(sc(C)c4C)-n4c(C)nnc43)O2)C(C)(C)C)cc1 [Example 6, (2S,4R)-1-((S)-2-(3-(2-((3aR,4R,6R,7aS)-3a-(2-(2-((S)-4-(4-chlorophenyl)-2,3,9-trimethyl-6H-thieno[3,2-f][1,2,4]triazolo[4,3-a][1,4]diazepin-6-yl)acetamido)ethyl)-5,5-dimethylhexahydro-4,6-methanobenzo[d][1,3,2]dioxaborol-2-yl)phenyl)propanamido)-3,3-dimethylbutanoyl)-4-hydroxy-N—((S)-1-(4-(4-methylthiazol-5-yl)phenyl)ethyl)pyrrolidine-2-carboxamide] | < 100 nM
6 | Cc1ncsc1-c1ccc([C@H](C)NC(=O)[C@@H]2C[C@@H](O)CN2C(=O)[C@@H](NC(=O)CCc2ccccc2B2O[C@H]3C[C@H]4C[C@H](C4(C)C)[C@@]3(CCCNC(=O)C[C@@H]3N=C(c4ccc(Cl)cc4)c4c(sc(C)c4C)-n4c(C)nnc43)O2)C(C)(C)C)cc1 [Example 7, (2S,4R)-1-((S)-2-(3-(2-((3aR,4R,6R,7aS)-3a-(3-(2-((S)-4-(4-chlorophenyl)-2,3,9-trimethyl-6H-thieno[3,2-f][1,2,4]triazolo[4,3-a][1,4]diazepin-6-yl)acetamido)propyl)-5,5-dimethylhexahydro-4,6-methanobenzo[d][1,3,2]dioxaborol-2-yl)phenyl)propanamido)-3,3-dimethylbutanoyl)-4-hydroxy-N—((S)-1-(4-(4-methylthiazol-5-yl)phenyl)ethyl)pyrrolidine-2-carboxamide] | < 100 nM

Second part, the compound after the results:

Row | DC50 | SMILES
7 | < 100 nM | Cc1sc2c(c1C)C(c1ccc(Cl)cc1)=N[C@@H](CC(=O)NCC[C@]13OB(c4ccccc4CCCC(=O)Nc4cccc5c4C(=O)N(C4CCC(=O)NC4=O)C5=O)O[C@H]1C[C@H]1C[C@@H]3C1(C)C)c1nnc(C)n1-2 (mixture of isomers) [Example 4, 4-(2-((3aR,4R,6R,7aS)-3a-(2-(2-((S)-4-(4-chlorophenyl)-2,3,9-trimethyl-6H-thieno[3,2-f][1,2,4]triazolo[4,3-a][1,4]diazepin-6-yl)acetamido)ethyl)-5,5-dimethylhexahydro-4,6-methanobenzo[d][1,3,2]dioxaborol-2-yl)phenyl)-N-(2-(2,6-dioxopiperidin-3-yl)-1,3-dioxoisoindolin-4-yl)butanamide]
8 | < 100 nM | Cc1sc2c(c1C)C(c1ccc(Cl)cc1)=N[C@@H](CC(=O)NCCC[C@]13OB(c4ccccc4CCCC(=O)Nc4cccc5c4C(=O)N(C4CCC(=O)NC4=O)C5=O)O[C@H]1C[C@H]1C[C@@H]3C1(C)C)c1nnc(C)n1-2 (stereo partly drawn) [Example 2, 4-(2-((3aR,4R,6R,7aS)-3a-(3-(2-((S)-4-(4-chlorophenyl)-2,3,9-trimethyl-6H-thieno[3,2-f][1,2,4]triazolo[4,3-a][1,4]diazepin-6-yl)acetamido)propyl)-5,5-dimethylhexahydro-4,6-methanobenzo[d][1,3,2]dioxaborol-2-yl)phenyl)-N-(2-(2,6-dioxopiperidin-3-yl)-1,3-dioxoisoindolin-4-yl)butanamide]
9 | < 100 nM | Cc1ncsc1-c1ccc(CNC(=O)[C@@H]2C[C@@H](O)CN2C(=O)[C@@H](NC(=O)CCc2cccc(F)c2B2O[C@H]3C[C@H]4C[C@H](C4(C)C)[C@@]3(CCNC(=O)C[C@@H]3N=C(c4ccc(Cl)cc4)c4c(sc(C)c4C)-n4c(C)nnc43)O2)C(C)(C)C)cc1 [Example 3, (2S,4R)-1-((2S)-2-(3-(2-((3aR,4R,6R,7aS)-3a-(2-(2-((6S)-4-(4-chlorophenyl)-2,3,9-trimethyl-6H-thieno[3,2-f][1,2,4]triazolo[4,3-a][1,4]diazepin-6-yl)acetamido)ethyl)-5,5-dimethylhexahydro-4,6-methanobenzo[d][1,3,2]dioxaborol-2-yl)-3-fluorophenyl)propanamido)-3,3-dimethylbutanoyl)-4-hydroxy-N-(4-(4-methylthiazol-5-yl)benzyl)pyrrolidine-2-carboxamide]

Same assay, conditions: BRD4 degradation in cells at 48-hour timepoint

Row | SMILES | DC50
10 | Cc1cc(C(C(=O)N2C[C@H](O)C[C@H]2C(=O)NCc2ccc(Cl)cc2B2O[C@H]3C[C@H]4C[C@H](C4(C)C)[C@@]3(CCNC(=O)C[C@@H]3N=C(c4ccc(Cl)cc4)c4c(sc(C)c4C)-n4c(C)nnc43)O2)C(C)C)on1 (single isomer, unassigned) [Example 10] | 1000 to 10000 nM
11 | Cc1cc(C(C(=O)N2C[C@H](O)C[C@H]2C(=O)NCc2ccc(Cl)cc2OC[C@]23OB(c4ccccc4CCNC(=O)C[C@@H]4N=C(c5ccc(Cl)cc5)c5c(sc(C)c5C)-n5c(C)nnc54)O[C@H]2C[C@H]2C[C@@H]3C2(C)C)C(C)C)on1 (single isomer, unassigned) [Example 11] | 1000 to 10000 nM
